Molecular target: T1, caspase-3 in HeLa cell (Homo sapiens, UniProt P42574)
T1 sequence (P42574 29-175 limits assumed): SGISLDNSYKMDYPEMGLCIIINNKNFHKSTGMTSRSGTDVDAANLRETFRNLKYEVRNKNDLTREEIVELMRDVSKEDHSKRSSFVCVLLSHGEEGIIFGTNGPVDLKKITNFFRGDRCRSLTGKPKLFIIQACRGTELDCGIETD
T1 sequence (P42574 176-277 limits assumed): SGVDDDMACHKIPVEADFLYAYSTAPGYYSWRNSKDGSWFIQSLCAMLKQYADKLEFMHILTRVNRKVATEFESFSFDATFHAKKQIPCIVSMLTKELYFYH
Assay: Apo-One Homogeneous Caspase-3/7 whole cell assay in HeLa cells

O=C1C(=O)N(Cc2cn(CCF)nn2)c2ccc(S(=O)(=O)N3CCC[C@H]3COc3ccc(F)cc3F)cc21 [Compound 51]
inhibition potency for caspase-3 in the whole cell assay (in words): very good inhibition potency

From publication PMC3075238 (Bioorganic & medicinal chemistry letters, 2011)
